Source: ChEMBL document CHEMBL5696443 (Clin Cancer Res, 2016)
Activity calls are given as the source filed them. The calls are words filed in the database; no cut-off is given here.

Experiments:
[1] = target: Vascular endothelial growth factor receptor 1 (Homo sapiens) (UniProt P17948); assay: Inhibition of human FLT1 at 1 uM using poly (Glu, Tyr)4:1 as substrate in presence of [gamma33P]-ATP by HotSpot assay relative to control
[2] = target: Cyclin-dependent kinase 2/cyclin E1 (Homo sapiens) (UniProt P24864+P24941); assay: Inhibition of human CDK2/CyclinE at 1 uM using RB protein as substrate in presence of [gamma33P]-ATP by HotSpot assay relative to control; assay type: protein-complex assay
[3] = target: Serine/threonine-protein kinase PAK 3 (Homo sapiens) (UniProt O75914); assay: Inhibition of human PAK3 at 1 uM using RRRLSFAEPG as substrate in presence of [gamma33P]-ATP by HotSpot assay relative to control
[4] = Average plasma concentration in human at 90 mg administered once a day; assay type: ADME; details: in vivo
[5] = target: Calcium/calmodulin-dependent protein kinase type II subunit gamma (Homo sapiens, UniProt Q13555); assay: Inhibition of human CAMK2G using KKLNRTLSFAEPG as substrate in presence of [gamma33P]-ATP by HotSpot assay
[6] = target: Casein kinase I isoform gamma-2 (Homo sapiens) (UniProt P78368); assay: Inhibition of human CSNK1G2 at 1 uM using KRRRAL[pS]VASLPGL as substrate in presence of [gamma33P]-ATP by HotSpot assay relative to control
[7] = target: Serine/threonine-protein kinase Nek3 (Homo sapiens) (UniProt P51956); assay: Inhibition of human NEK3 at 1 uM using MBP as substrate in presence of [gamma33P]-ATP by HotSpot assay relative to control
[8] = test system: EML4-ALK (Homo sapiens), Q9UM73+Q9HC35 [L1196M]; details: BaF3, time 3-5 weeks
[9] = target: Serine/threonine-protein kinase Nek9 (Homo sapiens, UniProt Q8TD19); assay: Inhibition of human NEK9 using MBP as substrate in presence of [gamma33P]-ATP by HotSpot assay
[10] = Average plasma concentration in human at 180 mg administered once a day; assay type: ADME; details: in vivo
[11] = target: Protein kinase C theta type (Homo sapiens) (UniProt Q04759); assay: Inhibition of human PKCtheta at 1 uM using ERMRPRKRQGSVRRRV as substrate in presence of [gamma33P]-ATP by HotSpot assay relative to control
[12] = target: Casein kinase I isoform epsilon (Homo sapiens) (UniProt P49674); assay: Inhibition of human CK1epsilon at 1 uM using KRRRAL[pS]VASLPGL as substrate in presence of [gamma33P]-ATP by HotSpot assay relative to control
[13] = target: Serine/threonine-protein kinase PLK2 (Homo sapiens) (UniProt Q9NYY3); assay: Inhibition of human PLK2 at 1 uM using casein as substrate in presence of [gamma33P]-ATP by HotSpot assay relative to control
[14] = target: Cyclin-dependent kinase 1/cyclin B1 (Homo sapiens) (UniProt P06493+P14635); assay: Inhibition of human CDK1/CyclinB at 1 uM using RB protein as substrate in presence of [gamma33P]-ATP by HotSpot assay relative to control; assay type: protein-complex assay
[15] = target: cGMP-dependent protein kinase 1 (Homo sapiens) (UniProt Q13976); assay: Inhibition of human PKG1b at 1 uM using LRRASLG as substrate in presence of [gamma33P]-ATP by HotSpot assay relative to control
[16] = target: Serine/threonine-protein kinase MARK1 (Homo sapiens, UniProt Q9P0L2); assay: Inhibition of human MARK1 using KKKVSRSGLYRSPSMPENLNRPR as substrate in presence of [gamma33P]-ATP by HotSpot assay
[17] = target: Receptor tyrosine-protein kinase erbB-2 (Homo sapiens, UniProt P04626); assay: Inhibition of human ERBB2 using poly (Glu, Tyr)4:1 as substrate in presence of [gamma33P]-ATP by HotSpot assay
[18] = test system: EML4-ALK (Homo sapiens), Q9UM73+Q9HC35 [F1174V]; details: BaF3, dose 500.0 nmol/L, time 3-5 weeks
[19] = target: Insulin-like growth factor 1 receptor (Homo sapiens, UniProt P08069)
Description: Inhibition of IGF-1R phosphorylation in IGF-1 stimulated human HepG2 cells preincubated with compound for 30 mins followed by IGF-1 stimulation for 10 mins by Immunoblot analysis

[20] = target: Serine/threonine-protein kinase 3 (Homo sapiens) (UniProt Q13188); assay: Inhibition of human STK3 at 1 uM using MBP as substrate in presence of [gamma33P]-ATP by HotSpot assay relative to control
[21] = target: Proto-oncogene tyrosine-protein kinase receptor Ret (Homo sapiens, UniProt P07949, V804M); assay: Inhibition of human RET V804M mutant using RRRRRRRRRRRVYSTDYYRLFNPS as substrate in presence of [gamma33P]-ATP by HotSpot assay
[22] = target: G protein-coupled receptor kinase 5 (Homo sapiens) (UniProt P34947); assay: Inhibition of human GRK5 at 1 uM using casein as substrate in presence of [gamma33P]-ATP by HotSpot assay relative to control
[23] = target: Cytoplasmic tyrosine-protein kinase BMX (Homo sapiens) (UniProt P51813); assay: Inhibition of human BMX at 1 uM using poly (Glu, Tyr)4:1 as substrate in presence of [gamma33P]-ATP by HotSpot assay relative to control
[24] = target: RAC-gamma serine/threonine-protein kinase (Homo sapiens) (UniProt Q9Y243); assay: Inhibition of human AKT3 at 1 uM using KGSGSGRPRTSSFAEG as substrate in presence of [gamma33P]-ATP by HotSpot assay relative to control
[25] = test system: NCI-H2228; assay: Antitumor activity against ALK positive human NCI-H2228 cells xenografted in SCID beige mouse assessed as tumor regression at 10 to 50 mg/kg, po administered once daily for 21 days and measured 28 days after treatment; assay type: functional, organism-based; details: dose 10-50 mg/kg, time 28.0 day
[26] = target: Mitogen-activated protein kinase 14 (Homo sapiens) (UniProt Q16539); assay: Inhibition of human MAPK14 at 1 uM using MBP as substrate in presence of [gamma33P]-ATP by HotSpot assay relative to control
[27] = target: CDK6/cyclin D3 (Homo sapiens) (UniProt P30281+Q00534); assay: Inhibition of human CDK6/CyclinD3 at 1 uM using RB protein as substrate in presence of [gamma33P]-ATP by HotSpot assay relative to control; assay type: protein-complex assay
[28] = target: Platelet-derived growth factor receptor alpha (Homo sapiens) (UniProt P16234); assay: Inhibition of human PDGFRalpha at 1 uM using poly (Glu, Tyr)4:1 as substrate in presence of [gamma33P]-ATP by HotSpot assay relative to control
[29] = test system: EML4-ALK (Homo sapiens), Q9UM73+Q9HC35 [L1152P]; details: BaF3, time 3-5 weeks

Serine/threonine-protein kinase PAK 3 (Homo sapiens), sequence (O75914 whole entry, looked up): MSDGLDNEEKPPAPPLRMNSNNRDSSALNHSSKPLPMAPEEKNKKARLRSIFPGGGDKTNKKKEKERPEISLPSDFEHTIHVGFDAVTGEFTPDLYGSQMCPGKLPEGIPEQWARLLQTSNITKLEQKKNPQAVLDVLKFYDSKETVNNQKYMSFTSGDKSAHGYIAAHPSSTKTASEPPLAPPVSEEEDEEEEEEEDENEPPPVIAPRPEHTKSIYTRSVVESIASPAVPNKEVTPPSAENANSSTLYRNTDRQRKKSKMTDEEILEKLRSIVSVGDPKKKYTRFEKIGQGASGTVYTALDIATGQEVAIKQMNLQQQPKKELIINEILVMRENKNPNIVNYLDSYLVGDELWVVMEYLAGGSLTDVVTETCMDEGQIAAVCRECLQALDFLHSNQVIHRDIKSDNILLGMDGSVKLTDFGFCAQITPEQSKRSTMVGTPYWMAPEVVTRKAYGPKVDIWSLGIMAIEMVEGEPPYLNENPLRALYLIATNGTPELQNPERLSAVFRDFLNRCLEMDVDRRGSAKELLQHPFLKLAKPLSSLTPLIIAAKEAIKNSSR
Serine/threonine-protein kinase PLK2 (Homo sapiens), sequence (Q9NYY3 whole entry, looked up): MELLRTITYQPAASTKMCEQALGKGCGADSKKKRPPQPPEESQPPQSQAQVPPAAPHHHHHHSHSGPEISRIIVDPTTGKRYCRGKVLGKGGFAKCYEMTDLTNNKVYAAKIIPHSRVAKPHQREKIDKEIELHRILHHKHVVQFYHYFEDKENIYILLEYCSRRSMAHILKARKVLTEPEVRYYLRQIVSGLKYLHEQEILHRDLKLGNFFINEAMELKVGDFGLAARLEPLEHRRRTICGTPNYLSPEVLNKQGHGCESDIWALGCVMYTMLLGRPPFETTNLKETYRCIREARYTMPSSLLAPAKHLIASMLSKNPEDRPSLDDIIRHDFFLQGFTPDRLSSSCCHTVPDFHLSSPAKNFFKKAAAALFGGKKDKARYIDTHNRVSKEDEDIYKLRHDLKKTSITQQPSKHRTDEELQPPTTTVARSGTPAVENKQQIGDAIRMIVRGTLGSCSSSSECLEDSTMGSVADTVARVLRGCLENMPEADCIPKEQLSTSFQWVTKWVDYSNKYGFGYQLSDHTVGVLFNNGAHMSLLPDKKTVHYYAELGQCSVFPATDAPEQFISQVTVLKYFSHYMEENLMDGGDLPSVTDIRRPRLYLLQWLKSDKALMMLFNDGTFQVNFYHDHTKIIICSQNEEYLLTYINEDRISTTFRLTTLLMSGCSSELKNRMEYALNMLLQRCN
Receptor tyrosine-protein kinase erbB-2, sequence (P04626 whole entry): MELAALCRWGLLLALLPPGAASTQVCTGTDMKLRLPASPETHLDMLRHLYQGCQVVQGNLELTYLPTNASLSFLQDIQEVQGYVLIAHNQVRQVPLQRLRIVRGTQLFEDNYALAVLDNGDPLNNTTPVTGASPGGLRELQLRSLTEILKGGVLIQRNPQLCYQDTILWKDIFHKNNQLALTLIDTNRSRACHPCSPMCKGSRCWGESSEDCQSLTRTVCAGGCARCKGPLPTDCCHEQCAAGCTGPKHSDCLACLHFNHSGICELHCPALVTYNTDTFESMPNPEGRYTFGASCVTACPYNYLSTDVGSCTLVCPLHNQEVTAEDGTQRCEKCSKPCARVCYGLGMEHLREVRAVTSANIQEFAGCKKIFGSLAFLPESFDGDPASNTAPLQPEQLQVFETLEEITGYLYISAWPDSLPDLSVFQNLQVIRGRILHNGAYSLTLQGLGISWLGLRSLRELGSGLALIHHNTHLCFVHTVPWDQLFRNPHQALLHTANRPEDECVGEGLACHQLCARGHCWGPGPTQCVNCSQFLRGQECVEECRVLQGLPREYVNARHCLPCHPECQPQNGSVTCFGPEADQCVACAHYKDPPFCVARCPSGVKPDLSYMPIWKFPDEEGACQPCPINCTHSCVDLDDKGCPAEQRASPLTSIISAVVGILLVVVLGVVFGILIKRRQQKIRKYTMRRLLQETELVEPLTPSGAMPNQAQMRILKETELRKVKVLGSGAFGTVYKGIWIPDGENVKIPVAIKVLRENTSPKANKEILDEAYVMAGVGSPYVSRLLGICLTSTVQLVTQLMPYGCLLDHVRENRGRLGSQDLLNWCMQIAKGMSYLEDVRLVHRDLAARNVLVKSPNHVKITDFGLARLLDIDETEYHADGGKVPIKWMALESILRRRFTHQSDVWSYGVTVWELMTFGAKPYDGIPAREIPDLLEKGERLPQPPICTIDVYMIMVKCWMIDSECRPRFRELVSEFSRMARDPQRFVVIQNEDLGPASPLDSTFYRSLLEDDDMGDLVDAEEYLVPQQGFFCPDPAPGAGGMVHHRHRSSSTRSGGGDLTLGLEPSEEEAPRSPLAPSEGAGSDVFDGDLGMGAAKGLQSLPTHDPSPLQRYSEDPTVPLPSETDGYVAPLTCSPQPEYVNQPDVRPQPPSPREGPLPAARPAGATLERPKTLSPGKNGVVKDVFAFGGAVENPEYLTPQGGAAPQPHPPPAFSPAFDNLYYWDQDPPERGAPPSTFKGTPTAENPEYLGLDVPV
Serine/threonine-protein kinase MARK1, sequence (Q9P0L2 whole entry): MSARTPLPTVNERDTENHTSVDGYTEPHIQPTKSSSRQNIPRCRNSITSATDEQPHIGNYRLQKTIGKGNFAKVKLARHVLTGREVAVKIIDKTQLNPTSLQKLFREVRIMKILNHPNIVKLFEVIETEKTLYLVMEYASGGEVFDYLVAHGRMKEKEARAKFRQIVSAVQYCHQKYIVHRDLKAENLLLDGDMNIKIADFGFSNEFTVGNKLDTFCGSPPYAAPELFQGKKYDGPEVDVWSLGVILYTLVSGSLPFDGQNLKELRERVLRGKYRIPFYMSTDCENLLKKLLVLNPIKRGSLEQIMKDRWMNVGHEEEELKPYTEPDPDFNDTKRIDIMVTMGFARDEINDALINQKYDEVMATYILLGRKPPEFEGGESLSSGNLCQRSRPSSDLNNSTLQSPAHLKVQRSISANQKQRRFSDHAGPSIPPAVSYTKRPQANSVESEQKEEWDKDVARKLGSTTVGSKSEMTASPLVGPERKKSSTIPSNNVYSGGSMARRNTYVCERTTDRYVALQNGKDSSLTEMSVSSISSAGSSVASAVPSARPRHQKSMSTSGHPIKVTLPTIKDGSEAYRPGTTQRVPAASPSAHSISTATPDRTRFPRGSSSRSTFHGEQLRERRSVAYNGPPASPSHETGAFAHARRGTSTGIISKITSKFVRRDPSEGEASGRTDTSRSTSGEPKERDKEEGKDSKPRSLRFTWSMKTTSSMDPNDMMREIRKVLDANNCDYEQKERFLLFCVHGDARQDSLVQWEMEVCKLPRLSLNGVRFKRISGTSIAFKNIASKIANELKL
Mitogen-activated protein kinase 14 (Homo sapiens), sequence (Q16539 whole entry): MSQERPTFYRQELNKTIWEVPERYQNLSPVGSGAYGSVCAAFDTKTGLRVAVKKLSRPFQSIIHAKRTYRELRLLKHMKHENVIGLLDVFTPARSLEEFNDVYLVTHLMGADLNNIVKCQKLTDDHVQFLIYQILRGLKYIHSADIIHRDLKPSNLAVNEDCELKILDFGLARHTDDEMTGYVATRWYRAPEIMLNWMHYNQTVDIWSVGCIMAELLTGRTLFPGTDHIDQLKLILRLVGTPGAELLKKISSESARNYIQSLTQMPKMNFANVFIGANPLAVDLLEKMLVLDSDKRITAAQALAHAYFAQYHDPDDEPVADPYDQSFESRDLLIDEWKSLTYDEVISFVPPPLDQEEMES
Protein kinase C theta type (Homo sapiens), sequence (Q04759 whole entry, looked up, canonical isoform): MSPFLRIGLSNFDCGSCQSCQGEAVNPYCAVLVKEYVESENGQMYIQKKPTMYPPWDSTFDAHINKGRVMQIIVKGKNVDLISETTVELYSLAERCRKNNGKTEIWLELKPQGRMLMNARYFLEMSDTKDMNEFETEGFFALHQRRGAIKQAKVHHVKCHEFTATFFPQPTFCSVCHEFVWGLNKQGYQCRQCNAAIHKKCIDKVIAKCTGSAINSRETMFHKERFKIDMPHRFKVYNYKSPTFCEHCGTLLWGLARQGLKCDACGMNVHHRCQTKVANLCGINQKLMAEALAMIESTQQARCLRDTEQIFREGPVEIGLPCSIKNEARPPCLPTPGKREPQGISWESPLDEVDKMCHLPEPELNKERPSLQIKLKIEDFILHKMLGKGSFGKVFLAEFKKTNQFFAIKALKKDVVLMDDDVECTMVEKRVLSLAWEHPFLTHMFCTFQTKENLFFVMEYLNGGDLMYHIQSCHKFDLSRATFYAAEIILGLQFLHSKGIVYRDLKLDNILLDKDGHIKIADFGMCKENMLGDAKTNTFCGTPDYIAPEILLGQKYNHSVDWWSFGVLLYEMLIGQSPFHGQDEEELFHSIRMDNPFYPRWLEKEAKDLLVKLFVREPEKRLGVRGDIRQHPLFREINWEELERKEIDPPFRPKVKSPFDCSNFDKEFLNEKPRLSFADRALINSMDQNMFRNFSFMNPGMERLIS
Cytoplasmic tyrosine-protein kinase BMX (Homo sapiens), sequence (P51813 whole entry): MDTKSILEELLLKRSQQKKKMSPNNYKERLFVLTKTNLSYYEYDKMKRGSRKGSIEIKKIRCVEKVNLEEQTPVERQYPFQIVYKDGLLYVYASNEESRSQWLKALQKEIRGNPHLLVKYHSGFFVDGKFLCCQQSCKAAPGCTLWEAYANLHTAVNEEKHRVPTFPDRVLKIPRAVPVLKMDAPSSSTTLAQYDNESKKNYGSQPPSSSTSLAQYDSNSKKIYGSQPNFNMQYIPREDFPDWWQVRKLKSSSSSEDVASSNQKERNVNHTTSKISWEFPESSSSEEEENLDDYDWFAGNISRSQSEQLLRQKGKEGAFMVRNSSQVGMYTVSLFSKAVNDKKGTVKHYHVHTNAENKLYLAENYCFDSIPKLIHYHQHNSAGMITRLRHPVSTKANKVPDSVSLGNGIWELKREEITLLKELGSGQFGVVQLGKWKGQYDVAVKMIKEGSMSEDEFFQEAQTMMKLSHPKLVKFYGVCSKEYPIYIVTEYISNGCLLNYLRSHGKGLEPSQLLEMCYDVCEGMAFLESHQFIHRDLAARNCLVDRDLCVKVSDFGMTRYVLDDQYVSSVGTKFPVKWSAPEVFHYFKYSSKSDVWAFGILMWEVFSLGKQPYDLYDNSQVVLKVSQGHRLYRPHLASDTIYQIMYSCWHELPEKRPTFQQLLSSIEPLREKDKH

## COc1cc(N2CCC(N3CCN(C)CC3)CC2)ccc1Nc1ncc(Cl)c(Nc2ccccc2P(C)(C)=O)n1 [BRIGATINIB]
[1]
  inhibition: < 90%
[2]
  inhibition: < 90%
[3]
  inhibition: < 90%
[4]
  Cave: 582 nM
[5]
  IC50: 48 nM
[6]
  inhibition: < 90%
[7]
  inhibition: < 90%
[8]
  IC90: 118 nM
[9]
  IC50: > 1000 nM
[10]
  Cave: 1447 nM
[11]
  inhibition: < 90%
[12]
  inhibition: < 90%
[13]
  inhibition: < 90%
[14]
  inhibition: < 90%
[15]
  inhibition: < 90%
[16]
  IC50: 127 nM
[17]
  IC50: 42 nM
[18]
  inhibition: Active
[19]
  IC50: 148 nM
[20]
  inhibition: < 90%
[21]
  IC50: 22 nM
[22]
  inhibition: < 90%
[23]
  inhibition: < 90%
[24]
  inhibition: < 90%
[25]
  Activity: Active
[26]
  inhibition: < 90%
[27]
  inhibition: < 90%
[28]
  inhibition: < 90%
[29]
  IC90: 94 nM
